# Laboratory results taken from article PMC10298926, “Biophysical Characterization of the Binding Mechanism between the MATH Domain of SPOP and Its Physiological Partners” (International Journal of Molecular Sciences, 2023).
# Where a SMILES comes first, the peptide text is derived from it.
# Columns and labels:
# [1] = biological target: T1, SPOP MATH WT (Homo sapiens, UniProt O43791); assay: Equilibrium binding, FRET (Trp to dansyl), fluorescence titration; conditions: read-out: Equilibrium KD; dansylated peptide 0 to 40 µM; constant SPOP MATH WT (2 µM in methods, 1 µM in results); excitation 280 nm, emission 300-400 nm; 298 K; hyperbolic fit
# From the text: The MATH domain of SPOP exerts its functions by specifically recognizing different substrates and, therefore, acting as an adaptor module between SPOP and its physiological ligands. In an effort to provide a complete characterization of SPOP MATH binding mechanisms, we investigated the recognition of three peptides mimicking a specific region of the substrates Puc (region 96–105), MacroH2A (region 166–179), and PTEN (region 354–368). […] Moreover, the three-dimensional structure of SPOP MATH in complexes with each of the peptides has been previously reported (3HQH, 3HQL, and 4OV1 PDB entries, respectively). Similar to previous work on other protein–protein recognition modules, we employed peptides carrying a covalently attached N-terminal dansyl fluorophore. Binding was then followed by measuring the FRET (Forster resonance energy transfer) between the three tryptophan residues of the SPOP MATH domain (donor) and the dansyl group of the peptides (acceptor).
# To address the equilibrium binding affinity of SPOP MATH and its substrates, a fixed concentration of the protein (1 µM) was challenged with increasing peptide concentrations. In all cases, the fluorescence-monitored transition returned a hyperbolic behavior as described in the Section 4, which allowed estimating a dissociation constant of 1.4 ± 0.4 µM, 1.6 ± 0.2 µM, and 5.5 ± 0.5 µM for Puc, MacroH2A, and PTEN, respectively (Figure 2). These values appear partly consistent with what was previously reported by Zhuang et al. by using surface plasmon resonance. […]
# Equilibrium binding experiments were performed on a Fluoromax-4 single-photon-counting spectrofluorometer (Jobin-Yvon, Newark, NJ, USA). The SPOP MATH domain was excited at 280 nm and emission spectra were recorded between 300 and 400 nm, at increasing dansylated peptide concentrations. […]
# [2] = biological target: T1, SPOP MATH WT; assay: Stopped-flow pseudo-first-order binding kinetics; conditions: 298 K
# Experimental: To infer the mechanism of recognition of SPOP MATH, we resorted to performing time-resolved kinetic experiments. SPOP MATH was rapidly mixed with increasing concentrations of dansylated peptides (from 2 to 10 µM for Puc and MacroH2A, and from 2 to 40 µM for PTEN) in a stopped-flow apparatus at 298 K. The binding traces obtained by monitoring the time-resolved fluorescence were satisfactorily fitted to a single exponential equation, allowing calculating the observed rate constants kobs at different peptide concentrations. We then plotted the kobs values over the concentration of dansylated peptide and fitted the data to a simple linear function equation: kobs=kon Peptide+koff where kobs is the observed rate constant; kon and koff are the microscopic association and dissociation rate constants, respectively (Figure 2). The slope and y-axis intercept represent the microscopic association and dissociation rate constant, respectively. To minimize the error associated with the indirect measurement of the dissociation rate constant, we carried out displacement experiments to determine the koff values. The displacement experiments were designed by mixing the preformed complex SPOP MATH-dansylated peptides with a high excess of nondansylated peptide, as described in the Section 4. […] On the basis of these observations, it is possible to conclude that, in the case of binding to MacroH2A and PTEN, there is the presence of an additional step, which escapes detection by stopped-flow experiments and is likely to be negligible in the case of Puc. […] We note that such a case closely resembles the presence of a so-called burst phase, which is frequently observed in protein-folding studies.
# Binding kinetic experiments were performed on an Applied Photophysics DX-17MV stopped-flow apparatus (Applied Photophysics, Leatherhead, UK). Pseudo-first-order binding experiments were performed by mixing a constant concentration (2 μM) of MATH domain with increasing dansylated peptides concentrations, from 2 to 10 μM of Puc and MacroH2A, and 2 to 40 µM of PTEN. The samples were excited at 280 nm, and the emission fluorescence was recorded by using a bandpass 320 nm cutoff filter. The experiments were performed at 298 K. For ionic strength dependence with Puc and MacroH2A, the buffers used were 50 mM sodium-HEPES, pH 7.2, supplemented with 50 mM, 100 mM, 200 mM, or 500 mM of sodium chloride (NaCl). For the PTEN binding salt dependence experiments, lower concentrations of salt were added for the previous buffer list mentioned (10 mM, 25 mM, and 50 mM of sodium chloride). For each acquisition, five traces were collected, averaged, and satisfactorily fitted to a single exponential equation.
# [3] = biological target: T2, SPOP MATH K130A (Homo sapiens, UniProt O43791, C159S/C23S/C44S/C68S/C93S/K129A); assay: Stopped-flow displacement; format: binding
# T2 construct: engineered MATH domain of SPOP protein (residues 1–182); His-tag; made in house; host or cells: Escherichia coli BL21 (DE3)
# From the text: (§1) To quantitatively address the role of specific residues in the binding mechanism of SPOP MATH, we resorted to taking advantage of the site-directed mutagenesis and generated ten site-directed mutants corresponding to the residues located in the binding pocket of the SPOP MATH domain. In particular, we produced a set of single mutants where residues R71, Y88, F103, Y124, F125, K130, D131, W132, F134, and K135 were substituted with alanine.
# (§2) Microscopic dissociation rate constants (koff) were directly measured by performing displacement experiments on an Applied Photophysics DX-17MV stopped-flow apparatus (Applied Photophysics). A preincubated complex of MATH domain and dansylated peptides at a constant concentration (both 8 µM) was rapidly mixed with an excess of nondansylated peptides (50 μM). The samples were excited at 280 nm and fluorescence emission was collected by using a 330 ± 30 nm bandpass filter. The experiments were performed at 298 K in the same buffer used for the binding experiments. The observed rate constants were calculated from the average of five single traces. The observed kinetics were consistent with a single exponential decay.
# [4] = biological target: T3, SPOP MATH K135A (Homo sapiens, UniProt O43791, C159S/C44S/C68S/C93S/K134A); assay: Stopped-flow displacement; format: binding; conditions: displacement of dansylated Puc, 298 K
# T3 construct: engineered MATH domain of SPOP protein (residues 1–182); His-tag; made in house; host or cells: Escherichia coli BL21 (DE3)
# From the text: as §1, §2
# [5] = biological target: SPOP MATH Y125A (Homo sapiens, UniProt O43791, Y123A, form not given); assay: Stopped-flow displacement; format: binding; conditions: displacement of dansylated Puc, 298 K
# From the text: as §1, §2
# T1 sequence (O43791 1-182): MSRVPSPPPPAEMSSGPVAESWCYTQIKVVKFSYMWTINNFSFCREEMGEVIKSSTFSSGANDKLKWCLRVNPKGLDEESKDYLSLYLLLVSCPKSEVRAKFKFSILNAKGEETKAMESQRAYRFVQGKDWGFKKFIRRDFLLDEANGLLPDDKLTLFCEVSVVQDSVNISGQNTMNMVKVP
# T3 sequence (O43791 1-182 C44S/C68S/C93S/K134A/C159S): as the sequence (O43791 1-182) above, with C44S, C68S, C93S, K134A, C159S counted along it
# Sequence of SPOP MATH Y125A (O43791 1-182 Y123A, form open): as the sequence (O43791 1-182) above, with Y123A counted along it
# T2 sequence (O43791 1-182 C23S/C44S/C68S/C93S/K129A/C159S): as the sequence (O43791 1-182) above, with C23S, C44S, C68S, C93S, K129A, C159S counted along it
smiles,measurement,setting,value
CC(C)[C@H](NC(=O)[C@H](CCC(=O)O)NC(=O)[C@H](CC(=O)O)NS(=O)(=O)c1cccc2c(N(C)C)cccc12)C(=O)N[C@H](C(=O)N[C@@H](CO)C(=O)N[C@H](C(=O)N[C@H](C(=O)N[C@@H](CO)C(=O)N[C@@H](CO)C(=O)N[C@@H](CO)C(=O)O)[C@@H](C)O)[C@@H](C)O)[C@@H](C)O [Puc] (HELM PEPTIDE1{[CN(C)c1cccc2c(S(=O)(=O)[*:2])cccc12].D.E.V.T.S.T.T.S.S.S}$$$$V2.0),Kd,[1],1.4 ± 0.5 µM
same,Kd,"[2]; read-out: Kinetics KD, WT, from kon (pseudo-first-order) and koff (displacement)",1.4 ± 0.4 µM
same,kon,"[2]; stopped-flow, 2 µM MATH domain, dansylated peptide 2 to 10 µM (Puc, MacroH2A) or 2 to 40 µM (PTEN), 50 mM sodium-HEPES, pH 7.2 (for ionic strength series), five traces averaged, slope of kobs vs peptide",1.9e+07 ± 1e+06 M⁻¹ s⁻¹
same,koff,[3],123 ± 16 s⁻¹
same,koff,[4],45.2 ± 0.4 s⁻¹
same,koff,[5],78.0 ± 0.2 s⁻¹
